Values joined by “and” are separate entries in the source; they are usually repeats but may differ in a detail not shown here. Identical values can stand only once. Toxic doses and inconclusive results are not listed. No stated cut-off is given here; in the data, active means T/C of 150% or more; inactive means T/C below 125%.
Tested on: L1210 leukemia ip in BDF1 mice, survival T/C
Assay: NCI In Vivo Anticancer Drug Screen. Data for tumor model L1210 Leukemia (intraperitoneal) in B6D2F1 (BDF1) mice
Conditions: endpoint: mean survival time, higher = longer survival
Method in brief: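 Transplantable tumor model; survival measured in treated vs vehicle control mice. Value = treated/control.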

[1] = dose: 100.0 mg/kg/injection, schedule: Q04DX003 (ip), vehicle: Klucel (hydroxypropylcellulose) (HPC)
[2] = dose: 200.0 mg/kg/injection, schedule: Q04DX003 (ip), vehicle: Klucel (hydroxypropylcellulose) (HPC)
[3] = dose: 400.0 mg/kg/injection, schedule: Q04DX003 (ip), vehicle: Klucel (hydroxypropylcellulose) (HPC)
[4] = dose: 50.0 mg/kg/injection, schedule: Q01DX009 (ip), vehicle: saline
[5] = dose: 100.0 mg/kg/injection, schedule: Q01DX001 (ip), vehicle: saline
[6] = dose: 200.0 mg/kg/injection, schedule: Q01DX001 (ip), vehicle: saline
[7] = dose: 400.0 mg/kg/injection, schedule: Q01DX001 (ip), vehicle: saline
[8] = dose: 100.0 mg/kg/injection, schedule: Q01DX009 (ip), vehicle: Klucel (hydroxypropylcellulose) (HPC)
[9] = dose: 200.0 mg/kg/injection, schedule: Q01DX009 (ip), vehicle: Klucel (hydroxypropylcellulose) (HPC)
[10] = dose: 400.0 mg/kg/injection, schedule: Q01DX009 (ip), vehicle: Klucel (hydroxypropylcellulose) (HPC)
[11] = dose: 100.0 mg/kg/injection, schedule: Q04DX003 (ip), vehicle: saline
[12] = dose: 200.0 mg/kg/injection, schedule: Q04DX003 (ip), vehicle: saline
[13] = dose: 400.0 mg/kg/injection, schedule: Q04DX003 (ip), vehicle: saline

Measured: T/C

CC(C)(C)N1CCC1CO (stereo unspecified)
inactive: dose: 75.0 mg/kg/injection, schedule: Q01DX001 (ip), vehicle: saline 106 % of control | dose: 150.0 mg/kg/injection, schedule: Q01DX001 (ip), vehicle: saline 97 % of control

COC1=C(OC)C(=O)C(SC/C=C(\C)CCCC(C)CCCC(C)CCCC(C)C)=CC1=O (stereo unspecified)
inactive: dose: 6.25 mg/kg/injection, schedule: Q01DX009 (ip), vehicle: saline with Tween-80 103 % of control | dose: 12.5 mg/kg/injection, schedule: Q01DX009 (ip), vehicle: saline with Tween-80 105 % of control | dose: 25.0 mg/kg/injection, schedule: Q01DX009 (ip), vehicle: saline with Tween-80 100 % of control and 113 % of control | dose: 50.0 mg/kg/injection, schedule: Q01DX009 (ip), vehicle: saline with Tween-80 104 % of control and 122 % of control | dose: 100.0 mg/kg/injection, schedule: Q01DX009 (ip), vehicle: saline with Tween-80 105 % of control and 122 % of control | dose: 200.0 mg/kg/injection, schedule: Q01DX009 (ip), vehicle: saline with Tween-80 115 % of control and 124 % of control | dose: 400.0 mg/kg/injection, schedule: Q01DX009 (ip), vehicle: saline with Tween-80 115 % of control

CSc1nccc(=S)[nH]1
inactive: dose: 50.0 mg/kg/injection, schedule: Q04DX002 (ip), vehicle: Klucel (hydroxypropylcellulose) (HPC) 88 % of control | dose: 100.0 mg/kg/injection, schedule: Q04DX002 (ip), vehicle: Klucel (hydroxypropylcellulose) (HPC) 92 % of control | dose: 200.0 mg/kg/injection, schedule: Q04DX002 (ip), vehicle: Klucel (hydroxypropylcellulose) (HPC) 95 % of control

O=C(O)CCC(=O)Nc1ccccc1
inactive: [1] 95 % of control | [2] 97 % of control | [3] 101 % of control

CCCCNC(=S)S
inactive: [1] 95 % of control | [2] 98 % of control | [3] 104 % of control

Cc1cc(=O)n(C)c[n+]1C
inactive: dose: 50.0 mg/kg/injection, schedule: Q01DX001 (ip), vehicle: saline 93 % of control | [4] 106 % of control | [5] 106 % of control | dose: 100.0 mg/kg/injection, schedule: Q01DX009 (ip), vehicle: saline 109 % of control | [6] 100 % of control | dose: 200.0 mg/kg/injection, schedule: Q01DX009 (ip), vehicle: saline 113 % of control | [7] 96 % of control

COc1ccc2c3c1OC1C(OC(C)=O)=CCC4C(C2)N(C)CCC314 (stereo unspecified)
inactive: [5] 93 % of control

CCN(CC)Cc1cc(Nc2cc(C)nc3ccc(N(C)C)cc23)ccc1O
inactive: dose: 12.5 mg/kg/injection, schedule: Q01DX009 (ip), vehicle: saline 104 % of control | dose: 25.0 mg/kg/injection, schedule: Q01DX009 (ip), vehicle: saline 98 % of control | [4] 100 % of control

CC(C)(C)c1cc(C[P+](c2ccc(Cl)cc2)(c2ccc(Cl)cc2)c2ccc(Cl)cc2)cc(C(C)(C)C)c1O
inactive: dose: 12.5 mg/kg/injection, schedule: Q01DX009 (ip), vehicle: Klucel (hydroxypropylcellulose) (HPC) 97 % of control | dose: 25.0 mg/kg/injection, schedule: Q01DX009 (ip), vehicle: Klucel (hydroxypropylcellulose) (HPC) 88 % of control | [1] 98 % of control | [2] 100 % of control

CC/C=C/c1cccc(OC)c1
inactive: [8] 102 % of control | [1] 105 % of control | [9] 96 % of control | [2] 110 % of control | [10] 95 % of control | [3] 96 % of control

C/C(=C/c1c(Br)cc(Br)c(N)c1Br)C(=O)O
inactive: [11] 100 % of control | [12] 102 % of control | [13] 102 % of control

Cc1ccc(NCS(=O)(=O)O)cc1
inactive: dose: 25.0 mg/kg/injection, schedule: Q04DX003 (ip), vehicle: Klucel (hydroxypropylcellulose) (HPC) 106 % of control | dose: 50.0 mg/kg/injection, schedule: Q04DX003 (ip), vehicle: Klucel (hydroxypropylcellulose) (HPC) 103 % of control | [1] 95 % of control and 96 % of control | [2] 100 % of control | [3] 97 % of control

CCOC(=O)c1ccc(N(Cc2cccc([N+](=O)[O-])c2)S(=O)(=O)c2ccc(C)cc2)cc1
inactive: dose: 75.0 mg/kg/injection, schedule: Q01DX001 (ip), vehicle: saline with Tween-80 93 % of control | dose: 150.0 mg/kg/injection, schedule: Q01DX001 (ip), vehicle: saline with Tween-80 87 % of control

O=C(CCCCCCCCC(=O)c1ccc2ccccc2c1O)c1ccc2ccccc2c1O
inactive: dose: 100.0 mg/kg/injection, schedule: Q01DX001 (ip), vehicle: Klucel (hydroxypropylcellulose) (HPC) 87 % of control | [8] 94 % of control | dose: 200.0 mg/kg/injection, schedule: Q01DX001 (ip), vehicle: Klucel (hydroxypropylcellulose) (HPC) 89 % of control | [9] 91 % of control | dose: 400.0 mg/kg/injection, schedule: Q01DX001 (ip), vehicle: Klucel (hydroxypropylcellulose) (HPC) 105 % of control | [10] 96 % of control

CCC12C=CCN3CCC4(C(=C(C(=O)OC)C1)Nc1cc(OC)ccc14)C32 (stereo unspecified)
inactive: dose: 100.0 mg/kg/injection, schedule: Q04DX002 (ip), vehicle: saline 110 % of control | dose: 200.0 mg/kg/injection, schedule: Q04DX002 (ip), vehicle: saline 121 % of control

O=S1(=O)C=Cc2ccccc21
inactive: [5] 106 % of control | dose: 100.0 mg/kg/injection, schedule: Q01DX009 (ip), vehicle: acetone 92 % of control | [11] 95 % of control | [6] 106 % of control | dose: 200.0 mg/kg/injection, schedule: Q01DX009 (ip), vehicle: acetone 91 % of control | [12] 97 % of control | [7] 100 % of control | dose: 400.0 mg/kg/injection, schedule: Q01DX009 (ip), vehicle: acetone 97 % of control | [13] 88 % of control

O=C1CCN(Cc2ccccc2)C(=S)N1
inactive: dose: 100.0 mg/kg/injection, schedule: Q01DX Z (ip), vehicle: methylcellulose (MC) 93 % of control

C[N+]1(CCCNC(=O)Nc2ccc(Cl)cc2)CCOCC1
inactive: dose: 12.5 mg/kg/injection, schedule: Q04DX002 (ip), vehicle: saline 105 % of control | dose: 25.0 mg/kg/injection, schedule: Q04DX002 (ip), vehicle: saline 102 % of control | dose: 50.0 mg/kg/injection, schedule: Q04DX002 (ip), vehicle: saline 97 % of control

NS(=O)(=O)c1ccc(NC(=O)Nc2ccc(F)cc2)cc1
inactive: dose: 100.0 mg/kg/injection, schedule: Q01DX001 (ip), vehicle: carboxymethylcellulose (CMC) 99 % of control | dose: 100.0 mg/kg/injection, schedule: Q01DX009 (ip), vehicle: carboxymethylcellulose (CMC) 94 % of control and 101 % of control | dose: 100.0 mg/kg/injection, schedule: Q04DX002 (ip), vehicle: carboxymethylcellulose (CMC) 92 % of control and 100 % of control | dose: 100.0 mg/kg/injection, schedule: Q04DX003 (ip), vehicle: carboxymethylcellulose (CMC) 93 % of control | dose: 200.0 mg/kg/injection, schedule: Q01DX001 (ip), vehicle: carboxymethylcellulose (CMC) 96 % of control | dose: 200.0 mg/kg/injection, schedule: Q01DX009 (ip), vehicle: carboxymethylcellulose (CMC) 94 % of control and 100 % of control | dose: 200.0 mg/kg/injection, schedule: Q04DX002 (ip), vehicle: carboxymethylcellulose (CMC) 100 % of control and 89 % of control | dose: 200.0 mg/kg/injection, schedule: Q04DX003 (ip), vehicle: carboxymethylcellulose (CMC) 104 % of control | dose: 400.0 mg/kg/injection, schedule: Q01DX001 (ip), vehicle: carboxymethylcellulose (CMC) 99 % of control | dose: 400.0 mg/kg/injection, schedule: Q01DX009 (ip), vehicle: carboxymethylcellulose (CMC) 94 % of control and 101 % of control | dose: 400.0 mg/kg/injection, schedule: Q04DX002 (ip), vehicle: carboxymethylcellulose (CMC) 100 % of control and 102 % of control | dose: 400.0 mg/kg/injection, schedule: Q04DX003 (ip), vehicle: carboxymethylcellulose (CMC) 104 % of control

CC(=O)NOCc1ccc(Cl)cc1
inactive: [1] 100 % of control | [2] 95 % of control | [3] 95 % of control

COC(=O)C[CH2][Ge]([CH3])([CH3])[CH3]
inactive: dose: 6.25 mg/kg/injection, schedule: Q04DX002 (ip), vehicle: saline with Tween-80 89 % of control | dose: 12.5 mg/kg/injection, schedule: Q04DX002 (ip), vehicle: saline with Tween-80 96 % of control | dose: 25.0 mg/kg/injection, schedule: Q04DX002 (ip), vehicle: saline with Tween-80 96 % of control | dose: 100.0 mg/kg/injection, schedule: Q04DX002 (ip), vehicle: saline with Tween-80 95 % of control | dose: 200.0 mg/kg/injection, schedule: Q04DX002 (ip), vehicle: saline with Tween-80 95 % of control | dose: 400.0 mg/kg/injection, schedule: Q04DX002 (ip), vehicle: saline with Tween-80 93 % of control

— PubChem BioAssay AID248 (DTP/NCI, 2004)
